Test results: patent publication US20100048696A1, “AGRICULTURAL DISEASE CONTROL AGENT” (Idemitsu Kosan Co., Ltd., priority 2007, published 2010)
Like-named read-outs stand apart in the source and are kept apart here.

How the values were obtained:
Format in all cases: cell-based
Conditions in all cases: 5 minutes
Burkholderia glumae = experiment: Material disinfection test
Pyricularia oryzae = test system: Pyricularia oryzae
Erwinia chrysanthemi = experiment: Material disinfection test
Burkholderia plantarii = experiment: Material disinfection test
Rhizoctonia solani = experiment: Material disinfection test
Ralstonia solanacearum = test system: Ralstonia solanacearum
Botrytis cinerea = experiment: Material disinfection test
Pythium ultimum = experiment: Material disinfection test
Fusarium oxysporum = experiment: Material disinfection test

Compound	Average value of viable bacteria counts on all materials examined (Burkholderia glumae; 10 times solution sprayed)	Average value of viable bacteria counts on all materials examined (Burkholderia glumae; 50 times solution sprayed)	average value of viable filamentous fungi counts on all materials examined (Pyricularia oryzae; 10 times solution sprayed)	average value of viable filamentous fungi counts on all materials examined (Pyricularia oryzae; 50 times solution sprayed)	Average value of viable bacteria counts on all materials examined (Erwinia chrysanthemi; 10 times solution sprayed)	Average value of viable bacteria counts on all materials examined (Erwinia chrysanthemi; 50 times solution sprayed)	Average value of viable bacteria counts on all materials examined (Burkholderia plantarii; 10 times solution sprayed)	Average value of viable bacteria counts on all materials examined (Burkholderia plantarii; 50 times solution sprayed)	average value of viable filamentous fungi counts on all materials examined (Rhizoctonia solani; 10 times solution sprayed)	average value of viable filamentous fungi counts on all materials examined (Rhizoctonia solani; 50 times solution sprayed)	Average value of viable bacteria counts on all materials examined (Ralstonia solanacearum; 10 times solution sprayed)	Average value of viable bacteria counts on all materials examined (Ralstonia solanacearum; 50 times solution sprayed)	average value of viable filamentous fungi counts on all materials examined (Botrytis cinerea; 10 times solution sprayed)	average value of viable filamentous fungi counts on all materials examined (Botrytis cinerea; 50 times solution sprayed)	average value of viable filamentous fungi counts on all materials examined (Pythium ultimum; 10 times solution sprayed)	average value of viable filamentous fungi counts on all materials examined (Pythium ultimum; 50 times solution sprayed)	average value of viable filamentous fungi counts on all materials examined (Fusarium oxysporum; 10 times solution sprayed)	average value of viable filamentous fungi counts on all materials examined (Fusarium oxysporum; 50 times solution sprayed)
O=C(O)CC(O)C(=O)O (stereo not drawn) [Malic acid]	3.6 × 10^8 cfu/ml	5.2 × 10^8 cfu/ml	4.6 × 10^4 cfu/ml	5.0 × 10^4 cfu/ml	1.4 × 10^8 cfu/ml	1.2 × 10^8 cfu/ml	1.0 × 10^7 cfu/ml	3.2 × 10^7 cfu/ml	2.1 × 10^5 cfu/ml	1.8 × 10^5 cfu/ml	9.5 × 10^8 cfu/ml	7.8 × 10^8 cfu/ml	3.7 × 10^5 cfu/ml	2.9 × 10^5 cfu/ml	2.5 × 10^4 cfu/ml	4.3 × 10^4 cfu/ml	1.8 × 10^5 cfu/ml	4.5 × 10^5 cfu/ml
O=C(O)CCC(=O)O [Succinic acid]	1.0 × 10^8 cfu/ml	1.5 × 10^8 cfu/ml	3.2 × 10^4 cfu/ml	3.1 × 10^4 cfu/ml	1.0 × 10^8 cfu/ml	1.0 × 10^8 cfu/ml	2.5 × 10^7 cfu/ml	2.6 × 10^7 cfu/ml	1.5 × 10^5 cfu/ml	2.1 × 10^5 cfu/ml	1.1 × 10^9 cfu/ml	8.5 × 10^8 cfu/ml	3.5 × 10^5 cfu/ml	4.3 × 10^5 cfu/ml	7.8 × 10^3 cfu/ml	3.0 × 10^4 cfu/ml	2.3 × 10^5 cfu/ml	4.5 × 10^5 cfu/ml
CC(=O)O [Acetic acid]	5.0 × 10^2 cfu/ml	3.3 × 10^7 cfu/ml	98 cfu/ml	1.5 × 10^2 cfu/ml	3.2 × 10^3 cfu/ml	1.1 × 10^7 cfu/ml	1.2 × 10^3 cfu/ml	8.3 × 10^6 cfu/ml	33 cfu/ml	3.1 × 10^2 cfu/ml	2.8 × 10^2 cfu/ml	6.0 × 10^8 cfu/ml	65 cfu/ml	2.6 × 10^2 cfu/ml	58 cfu/ml	6.8 × 10^3 cfu/ml	76 cfu/ml	4.2 × 10^2 cfu/ml
